For orientation: EC50 means the concentration at which the effect is half-maximal. Low readings indicate an effect from little substance, high ones a need for much substance. As usually defined, the AC50 is the concentration at which the activity in the assay is half-maximal. As usually defined, the Ki is the dissociation constant of the complex between target and ligand, obtained from inhibition or displacement. What is called IC50 is the concentration that gives 50% inhibition.

The record followed here is ChEMBL document CHEMBL1201862, “PubChem BioAssay data set” (2004).

Assay [1] in a line: cells. The format is functional, cell-based.
Assay [2] has as its target CAAX prenyl protease 2 (Saccharomyces cerevisiae S288c, UniProt Q03530). The format is biochemical.
The target in assay [3] is LIM domain kinase 1 (Homo sapiens, UniProt P53667). Kind of assay: Navigating the Kinome. Panel member name: LIMK1. The format is functional.
The target of assay [4] is T1, Histone-lysine N-methyltransferase NSD2 (Homo sapiens, UniProt O96028).
T1 sequence (O96028 whole entry): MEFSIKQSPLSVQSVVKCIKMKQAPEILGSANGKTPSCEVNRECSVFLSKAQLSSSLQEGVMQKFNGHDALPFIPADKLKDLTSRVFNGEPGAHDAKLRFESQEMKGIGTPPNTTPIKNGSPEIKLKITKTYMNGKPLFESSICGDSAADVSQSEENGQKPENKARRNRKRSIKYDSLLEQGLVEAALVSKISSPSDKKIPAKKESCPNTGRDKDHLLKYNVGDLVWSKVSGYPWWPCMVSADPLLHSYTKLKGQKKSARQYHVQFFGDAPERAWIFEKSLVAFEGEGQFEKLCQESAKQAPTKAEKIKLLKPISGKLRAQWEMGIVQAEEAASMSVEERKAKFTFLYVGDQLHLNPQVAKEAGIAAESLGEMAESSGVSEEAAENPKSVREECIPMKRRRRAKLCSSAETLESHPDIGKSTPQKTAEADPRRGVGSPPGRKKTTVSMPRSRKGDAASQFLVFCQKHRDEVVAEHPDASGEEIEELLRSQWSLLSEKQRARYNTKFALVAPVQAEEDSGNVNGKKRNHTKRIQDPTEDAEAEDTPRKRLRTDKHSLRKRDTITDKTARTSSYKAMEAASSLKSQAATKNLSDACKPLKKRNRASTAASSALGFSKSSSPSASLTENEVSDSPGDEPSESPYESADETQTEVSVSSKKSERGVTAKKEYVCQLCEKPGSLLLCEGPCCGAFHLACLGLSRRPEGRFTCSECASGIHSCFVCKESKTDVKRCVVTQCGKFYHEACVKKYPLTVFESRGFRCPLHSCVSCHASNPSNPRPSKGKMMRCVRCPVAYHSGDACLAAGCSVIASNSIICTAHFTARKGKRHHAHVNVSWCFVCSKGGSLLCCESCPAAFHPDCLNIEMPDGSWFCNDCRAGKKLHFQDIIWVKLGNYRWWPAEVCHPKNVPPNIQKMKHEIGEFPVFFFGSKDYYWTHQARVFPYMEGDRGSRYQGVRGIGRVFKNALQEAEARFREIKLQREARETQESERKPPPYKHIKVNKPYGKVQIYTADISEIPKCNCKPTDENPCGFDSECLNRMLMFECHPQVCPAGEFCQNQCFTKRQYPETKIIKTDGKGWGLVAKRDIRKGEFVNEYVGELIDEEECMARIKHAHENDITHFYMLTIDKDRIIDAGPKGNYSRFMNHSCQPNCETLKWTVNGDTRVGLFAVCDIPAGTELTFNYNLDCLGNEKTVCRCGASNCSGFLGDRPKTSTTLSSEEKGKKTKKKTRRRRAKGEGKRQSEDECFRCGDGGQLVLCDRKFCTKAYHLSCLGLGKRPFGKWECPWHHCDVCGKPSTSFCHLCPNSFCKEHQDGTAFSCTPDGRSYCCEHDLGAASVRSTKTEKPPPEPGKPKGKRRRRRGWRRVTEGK
The format is biochemical.

The target of assay [5] is T2, Sentrin-specific protease 6 (Homo sapiens, UniProt Q9GZR1).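 Also: Luminescence-based dose-response confirmatory assay of SENP6 inhibition, following up an ultra-high-throughput screen.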
T2 sequence (Q9GZR1 whole entry): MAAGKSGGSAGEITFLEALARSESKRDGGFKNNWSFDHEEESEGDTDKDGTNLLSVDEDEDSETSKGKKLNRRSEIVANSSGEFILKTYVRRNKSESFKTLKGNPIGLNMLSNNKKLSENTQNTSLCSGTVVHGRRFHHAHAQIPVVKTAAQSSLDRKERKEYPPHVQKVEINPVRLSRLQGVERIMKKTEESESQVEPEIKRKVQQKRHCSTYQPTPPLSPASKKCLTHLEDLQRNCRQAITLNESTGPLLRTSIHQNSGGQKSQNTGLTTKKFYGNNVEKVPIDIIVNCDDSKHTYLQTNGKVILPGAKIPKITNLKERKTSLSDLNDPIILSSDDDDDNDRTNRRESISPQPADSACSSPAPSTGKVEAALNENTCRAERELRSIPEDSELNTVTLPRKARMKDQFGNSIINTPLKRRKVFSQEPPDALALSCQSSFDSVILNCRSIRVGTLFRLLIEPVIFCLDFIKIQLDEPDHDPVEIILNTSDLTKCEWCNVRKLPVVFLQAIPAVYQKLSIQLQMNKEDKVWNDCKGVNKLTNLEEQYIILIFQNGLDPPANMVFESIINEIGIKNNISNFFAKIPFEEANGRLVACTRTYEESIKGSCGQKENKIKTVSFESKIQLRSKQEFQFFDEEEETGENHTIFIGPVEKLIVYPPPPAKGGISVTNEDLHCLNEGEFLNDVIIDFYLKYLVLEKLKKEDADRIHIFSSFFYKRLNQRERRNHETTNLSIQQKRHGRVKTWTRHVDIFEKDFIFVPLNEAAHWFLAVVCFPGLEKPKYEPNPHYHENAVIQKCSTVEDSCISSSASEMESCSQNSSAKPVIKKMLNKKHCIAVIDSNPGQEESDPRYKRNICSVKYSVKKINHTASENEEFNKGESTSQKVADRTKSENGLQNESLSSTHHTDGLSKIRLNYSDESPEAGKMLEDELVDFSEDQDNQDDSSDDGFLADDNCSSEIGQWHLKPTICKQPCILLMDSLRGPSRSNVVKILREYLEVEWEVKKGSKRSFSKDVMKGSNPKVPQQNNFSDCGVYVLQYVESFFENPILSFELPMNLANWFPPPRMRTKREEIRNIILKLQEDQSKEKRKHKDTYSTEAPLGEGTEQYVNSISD
The format is functional.

Assay [6] concerns the target T3, Mannose-6-phosphate isomerase (Homo sapiens, UniProt P34949).
T3 sequence (P34949 whole entry): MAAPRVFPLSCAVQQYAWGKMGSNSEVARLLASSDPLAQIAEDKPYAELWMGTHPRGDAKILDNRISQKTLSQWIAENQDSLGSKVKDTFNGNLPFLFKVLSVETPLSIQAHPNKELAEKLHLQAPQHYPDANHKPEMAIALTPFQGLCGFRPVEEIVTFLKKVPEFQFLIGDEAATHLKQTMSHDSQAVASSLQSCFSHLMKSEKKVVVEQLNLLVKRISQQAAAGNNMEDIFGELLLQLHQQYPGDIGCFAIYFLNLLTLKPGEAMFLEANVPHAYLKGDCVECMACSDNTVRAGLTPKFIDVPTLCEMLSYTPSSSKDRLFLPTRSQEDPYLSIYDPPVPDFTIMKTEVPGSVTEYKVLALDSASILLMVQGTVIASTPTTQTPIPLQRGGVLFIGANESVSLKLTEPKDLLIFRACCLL
As to the kind of experiment: inhibitors of human PMI, primary screen, biochemical, fluorescence intensity, coupled assay (AID 1209).

Calls of active or inactive are those of the source. A value given as a limit tells only on which side of the number the result lay.
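For EC50 in this document: proteasome chymotrypsin-like activity measured in U2OS cells; potency is for inhibition of proteasome activity.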

Sequence of LIM domain kinase 1 (P53667 whole entry, the tested form may be a part): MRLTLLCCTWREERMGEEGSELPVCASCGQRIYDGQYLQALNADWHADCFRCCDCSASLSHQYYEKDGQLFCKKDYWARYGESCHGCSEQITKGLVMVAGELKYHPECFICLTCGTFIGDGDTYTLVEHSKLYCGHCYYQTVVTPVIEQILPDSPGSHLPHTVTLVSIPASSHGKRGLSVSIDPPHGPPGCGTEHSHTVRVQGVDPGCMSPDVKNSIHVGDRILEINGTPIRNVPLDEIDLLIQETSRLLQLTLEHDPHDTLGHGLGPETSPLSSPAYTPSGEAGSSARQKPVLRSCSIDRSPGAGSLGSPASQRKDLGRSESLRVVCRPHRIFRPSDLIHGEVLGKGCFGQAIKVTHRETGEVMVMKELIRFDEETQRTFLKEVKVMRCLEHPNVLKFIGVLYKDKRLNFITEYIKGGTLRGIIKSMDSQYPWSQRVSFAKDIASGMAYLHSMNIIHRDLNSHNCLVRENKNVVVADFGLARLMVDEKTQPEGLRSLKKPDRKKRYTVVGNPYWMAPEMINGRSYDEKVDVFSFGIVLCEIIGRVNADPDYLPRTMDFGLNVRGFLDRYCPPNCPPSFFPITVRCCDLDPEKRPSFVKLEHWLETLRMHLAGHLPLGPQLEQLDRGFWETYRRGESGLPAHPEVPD
Sequence of CAAX prenyl protease 2 (Q03530 whole entry, the tested form may be a part): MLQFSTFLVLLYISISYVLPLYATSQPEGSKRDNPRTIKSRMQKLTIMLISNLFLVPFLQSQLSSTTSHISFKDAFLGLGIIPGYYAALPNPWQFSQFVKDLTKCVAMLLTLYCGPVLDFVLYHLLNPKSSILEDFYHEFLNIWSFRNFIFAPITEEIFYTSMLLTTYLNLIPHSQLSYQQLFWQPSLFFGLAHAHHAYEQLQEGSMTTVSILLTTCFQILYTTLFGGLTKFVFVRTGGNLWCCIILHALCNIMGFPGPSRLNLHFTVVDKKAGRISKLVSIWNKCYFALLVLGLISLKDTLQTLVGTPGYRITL

For the compound `CC(C)CC(=O)NC(c1cccs1)c1ccc2cccnc2c1O` (stereo unspecified), the EC50 in assay [1] is given as > 350 µM (not active).
Take `OC(CNCCC1C=Nc2ccccc21)Cn1c2ccc(Cl)cc2c2cc(Cl)ccc21` (stereo unspecified): in assay [2], the half-maximal activity concentration (AC50) is 8.21 µM (active).
Regarding `O=C(O)C1CN(Cc2ccc(OCc3ccccc3)cc2Cl)C1`, the Ki in assay [3] was > 3.16 µM (inactive).
With `COc1ccc(C(=O)c2nccc3cc(OC)c(OC)cc23)cc1OC`, the AC50 in assay [4] was 6.77 µM (active). Besides, the 50% inhibitory concentration (IC50) in assay [5] is 0.805 µM (active).
On to `Cc1ccccc1-c1cc2c(nn1)-c1ccccc1C2=O`, for which the IC50 in assay [6] is on record as > 50 µM (not active).
